pIC50: −log10 of the molar value.
Molecular target: T1, recombinant HIV reverse transcriptase (HIV RTR) (Human immunodeficiency virus type 1 group M subtype B, UniProt P04585)
T1 construct: recombinant HIV reverse transcriptase (HIV RTR)
Assay: Reverse Transcriptase Assay
Format: biochemical
Details: incorporation of [³H] dGMP into acid-precipitable cDNA, dGTP and poly r(C)·oligo d(G)12-18 at Km, 37°C for 45 minutes; read-out: IC₅₀
Experimental: The assay measures the incorporation of tritiated deoxyguanosine monophosphate by recombinant HIV reverse transcriptase (HIV RTR) (or other RT) into acid-precipitable cDNA at the Km values of dGTP and poly r(C)·oligo d(G)₁₂₋₁₈.
Thirty uL of a reaction mixture containing equal volumes of: 500 mM Tris·HCl (pH 8.2), 300 mM MgCl₂, 1200 mM KCl, 10 mM DTT, 400 µg/mL poly r(c)·oligo d(G) [prepared by dissolving 1.5 mg (25 U) poly r(C)·oligo d(G) in 1.5 ml sterile distilled H₂O and diluting to 400 µg/ml], 0.1 µCi/µl [³H] dGTP, 160 µM dGTP, was added to 10 µl sterile distilled H₂O, 2.5 µl of potential inhibitor and 10 µL of 5 nM purified HIV RTR in tubes. The mixture was incubated at 37°C for 45 minutes.
After incubation is complete, the tubes were cooled in ice for 5 minutes. Ice-cold 13% TCA containing 10 mM NaPPi (200 µl) are added and the mixture incubated on ice for 30 minutes. The precipitated cDNA is removed by filtration using presoaked glass filters [TCA, NaPPi]. The precipitate is then washed with 1N HCl, 10 mM NaPPi.
The filter discs are then counted in a scintillation counter.
Under these conditions [dGTP] and poly r(C)·oligo d(G)₁₂₋₁₈ each are approximately equal to the appropriate Km value. […] Calculated IC₅₀ values for the lead compounds of this invention were approximately 94nM and (more than or equal to) 300 µM for L-697,914 and L-697,913, respectively. […]

| Compound | pIC50 |
| --- | --- |
| Cc1[nH]c(=O)c(NCc2nc3ccccc3o2)cc1C(C)O [L-697,913, 3-[(benzoxazol-2-yl)methylamino]-5-(1-hydroxyethyl)-6-methylpyridin-2(1H)-one] | ≤ 3.52 |
| CCc1cc(NCc2nc3ccccc3o2)c(=O)[nH]c1CO [L-697,914, 3-[(benzoxazol-2-yl)methylamino]-5-ethyl-6-hydroxymethylpyridin-2(1H)-one] | ~7.03 |

Source: patent publication EP0481802A1, “Hydroxylated inhibitors of HIV reverse transcriptase” (MERCK & CO. INC., priority 1990, dated 1992)
